# Experimental data: patent US20070142317A1, “Topical composition for treatment of skin disorders” (QLT USA, Inc., priority 2003, published 2007)
# Values joined by “and” are separate entries in the source; they are usually repeats but may differ in a detail not shown here. Equal values may be shown once. Read-outs that look alike come from different tables or passages of the source.
# Tests used:
# U937 monocytoid cells [1] = test: TUNEL assay, dAd, adenosine and adenine dose ranging (Example 24); format: cell-based; details: for % FITC Shift / % PI Shift: 2 days
# Experimental: U937 monocytoid cells were cultured in the presence of dAd at various concentrations of dAd (0, 50, 75, 100, 250 and 1000 micromoles/liter). The cells were incubated in dAd for 2 days. At the end of the treatment period, the cells were harvested for analysis by a TUNEL assay, a flow-cytometry-based method to quantify the percentage of cells that have undergone apoptosis. The level of apoptosis expressed as “% FITC shift”. The level of cell cycle arrest is expressed as “% PI shift”. As a positive control, the cells were exposed to 5 mM camptothecin for 2 days.
# U937 monocytoid cells [2] = test: TUNEL apoptosis assay, sequential exposure to dCF then dAd (Example 21); format: cell-based; details: Camptothecin 5 uM, positive control
# Experimental: (§1) Thus, it is hypothesized that the sequential exposure of the cells to dCF, followed by deoxyadenosine (dAd) will lead to greater levels of apoptosis than dCF alone. […] The cells were then incubated in dAd for 2 more days. At the end of the treatment period, the cells were harvested for analysis by a TUNEL assay, a flow-cytometry-based method to quantify the percentage of cells that have undergone apoptosis. The level of apoptosis is expressed as “% FITC shift”. As a positive control, the cells were exposed to 5 mM camptothecin for 2 days.
# Jurkat T cells = test: as above; format: cell-based; details: Camptothecin 5 uM, positive control
# Experimental: as §1
# U937 monocytoid cells [3] = test: TUNEL assay, simultaneous exposure to dCF and dAd (Example 22); format: cell-based; details: camptothecin positive control, 2 days (5 mM printed elsewhere in the source)
# Experimental: Methods Simultaneous Exposure—U937 monocytoid cells were cultured in the presence of 0, 1, 2.5, 10, 20, 50, 100, 150, 200, and 250 μM dAdo for 2 days. […] At the end of the treatment period, the cells were harvested for analysis by a TUNEL assay, a flow-cytometry-based method to quantify the percentage of cells that have undergone apoptosis. The level of apoptosis is expressed as “% FITC shift”. As a positive control, the cells were exposed to 5 mM camptothecin for 2 days.
# U-937 cells [4] = test: Cytokine secretion by ELISA (Example 31); format: cell-based; details: for effect on suppressing the production of IL-6: 46 hours
# Experimental: (§2) In a search for a topical agent that can locally deplete levels of T-cells in the skin, apoptotic compounds were evaluated for their mechanisms of action. The ability that […] induce apoptosis by the same mechanisms was examined by cytokine secretion. […] Caspase-3 and cytokine (IL-2, IL-6, TNF, and IFN-γ) levels were determined and compared to controls at 23 and 46 hours. FdA was incorporated to evaluate the effect of the halogen group and Ara-C for its overlapping mechanisms of action. […] At the end of the treatment period, the cells were harvested and Caspase-3 induction was determined using a flow-cytometry-based method to quantify the percentage of cells that induced Caspase-3. The level of apoptosis is expressed as “% FITC shift”. Cytokine secretion (IL-2, IL-6, TNF, and IFN-γ) was measured at the same time by ELISA and is expressed in pg/mL. […]
# U937 monocytoid cells [5] = test: TUNEL assay, dAd added at different times after dCF wash-out (Example 22); format: cell-based; details: 0 μM dCF + camptothecin positive control, time after wash-out 0 hr (5 mM printed elsewhere in the source)
# Experimental: At 0, 6, 24, and 48 hours, 50 μM dAd was added and the cells were incubated for an additional 2 days. At the end of the treatment period, the cells were harvested for analysis by a TUNEL assay, a flow-cytometry-based method to quantify the percentage of cells that have undergone apoptosis. The level of apoptosis is expressed as “% FITC shift”. As a positive control, the cells were exposed to 5 mM camptothecin for 2 days.
# Jurkat cells [6] = test: Cytokine secretion by ELISA (Example 31); format: cell-based
# Experimental: In a search for a topical agent that can locally deplete levels of T-cells in the skin, apoptotic compounds were evaluated for their mechanisms of action. The ability that […] induce apoptosis by the same mechanisms was examined by cytokine secretion. […] At the end of the treatment period, the cells were harvested and Caspase-3 induction was determined using a flow-cytometry-based method to quantify the percentage of cells that induced Caspase-3. The level of apoptosis is expressed as “% FITC shift”. Cytokine secretion (IL-2, IL-6, TNF, and IFN-γ) was measured at the same time by ELISA and is expressed in pg/mL.
# U937 monocytoid cells [7] = test: TUNEL assay, dAd added at different times after dCF wash-out (Example 22); format: cell-based; details: 0 μM dCF + camptothecin positive control, time after wash-out 0 hr (5 mM printed elsewhere in the source); remark: listed apart in the source
# [8] = biological target: T1, ribonucleotide reductase (RNR) (Homo sapiens, UniProt P23921); details: cited from earlier work
# T1 sequence (P23921 1-792): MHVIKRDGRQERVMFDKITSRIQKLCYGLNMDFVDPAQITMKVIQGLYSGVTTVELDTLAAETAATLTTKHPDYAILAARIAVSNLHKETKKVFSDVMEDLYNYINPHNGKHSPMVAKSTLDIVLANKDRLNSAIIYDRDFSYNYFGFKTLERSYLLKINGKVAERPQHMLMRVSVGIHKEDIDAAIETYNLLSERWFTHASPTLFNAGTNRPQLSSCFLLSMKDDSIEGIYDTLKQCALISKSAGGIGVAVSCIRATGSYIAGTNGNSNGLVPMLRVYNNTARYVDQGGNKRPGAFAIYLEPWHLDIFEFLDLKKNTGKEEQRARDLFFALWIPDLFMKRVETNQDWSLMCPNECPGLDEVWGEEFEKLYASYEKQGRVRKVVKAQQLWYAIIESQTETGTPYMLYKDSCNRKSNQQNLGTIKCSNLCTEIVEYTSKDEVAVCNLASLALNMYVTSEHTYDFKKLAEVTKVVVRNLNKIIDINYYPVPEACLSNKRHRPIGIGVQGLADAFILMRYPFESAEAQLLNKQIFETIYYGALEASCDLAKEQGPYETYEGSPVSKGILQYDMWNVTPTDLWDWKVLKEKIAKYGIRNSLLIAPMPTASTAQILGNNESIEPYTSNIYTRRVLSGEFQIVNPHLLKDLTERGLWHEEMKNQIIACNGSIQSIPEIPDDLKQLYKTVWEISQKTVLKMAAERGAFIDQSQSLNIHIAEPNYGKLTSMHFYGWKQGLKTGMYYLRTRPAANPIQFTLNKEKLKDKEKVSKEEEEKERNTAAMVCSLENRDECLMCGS
# dCK = dCK (Homo sapiens, UniProt P27707); details: read-out: Km for dCK; cited from earlier work
# U-937 cells [9] = test: Caspase-3 induction by flow cytometry (Example 31); format: cell-based; details: drug 1 μM, LPS-activated cells
# Experimental: as §2
# Jurkat cells [10] = test: Caspase-3 induction by flow cytometry (Example 31); format: cell-based; details: drug 1 μM, PHA-activated cells
# Experimental: as §2
# [11] = systemic, deamination by CDA; cited from earlier work
# ADA = ADA (Homo sapiens, UniProt P00813); details: cited from earlier work
# [12] = for systemic exposure per day: topical 1.0% (10 mg/g), 7% systemic absorption
# Text: (§3) Systemic absorption is a concern, because of the potential for serious adverse events, such as lymphopenia and renal toxicity. At oncology doses, these adverse reactions are usually minimized, but the therapeutic index is narrow. Another factor that plays a role in the safety of the formulation is the amount of product administered each day. Approximately 4 grams, 12 grams, and 40 grams of a topical formulation are estimated to cover 10%, 30%, and 100% of the body surface area.
# as §3
# as §3, with “Calculations of safety margins have been performed, based upon this assumption and the known toxicity profile of F-Ara-A when administered IV for oncology indications. Systemic” for “Systemic”
# as §3
# [13] = 23 hr, drug 5 μM, positive control
# [14] = 46 hr, drug 5 μM, positive control
# [15] = Camptothecin 5 uM, positive control
# [16] = 23 hr, drug 1 μM, LPS-activated cells
# [17] = 46 hr, drug 1 μM, LPS-activated cells
# Chain of ADA (P00813 whole entry, species assumed): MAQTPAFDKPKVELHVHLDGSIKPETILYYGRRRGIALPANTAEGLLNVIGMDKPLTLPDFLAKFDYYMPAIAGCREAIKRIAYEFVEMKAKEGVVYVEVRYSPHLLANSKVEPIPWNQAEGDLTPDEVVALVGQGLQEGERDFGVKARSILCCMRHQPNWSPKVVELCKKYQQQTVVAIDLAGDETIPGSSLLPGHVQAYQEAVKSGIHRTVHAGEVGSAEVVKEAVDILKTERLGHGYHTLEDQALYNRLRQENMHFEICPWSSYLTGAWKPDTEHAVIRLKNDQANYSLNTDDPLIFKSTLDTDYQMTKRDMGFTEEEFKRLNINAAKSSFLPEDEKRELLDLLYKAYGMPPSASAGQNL
# Chain of dCK (P27707 whole entry, species assumed): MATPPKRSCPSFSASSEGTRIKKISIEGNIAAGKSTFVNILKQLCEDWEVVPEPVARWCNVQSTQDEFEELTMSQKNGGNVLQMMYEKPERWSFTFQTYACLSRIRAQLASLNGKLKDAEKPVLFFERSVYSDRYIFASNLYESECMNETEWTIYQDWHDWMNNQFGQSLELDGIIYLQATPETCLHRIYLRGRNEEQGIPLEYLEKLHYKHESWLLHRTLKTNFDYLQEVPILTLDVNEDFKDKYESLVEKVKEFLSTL
structure (smiles),measurement,setting,value
"Nc1[nH]cnc2ncnc1-2 [Adenine, 1H-Purin-6-amine]",effect on apoptosis or cell cycle,U937 monocytoid cells [1]; at 1000 uM,slight hint of an effect
same,% FITC Shift,"U937 monocytoid cells [1]; drug 50 uM, no dCF",0.4%
same,% PI Shift,"U937 monocytoid cells [1]; drug 50 uM, no dCF",2.0%
same,% FITC Shift,"U937 monocytoid cells [1]; drug 75 uM, no dCF",0.6%
same,% PI Shift,"U937 monocytoid cells [1]; drug 75 uM, no dCF",2.4%
same,% FITC Shift,"U937 monocytoid cells [1]; drug 100 uM, no dCF",0.3%
same,% PI Shift,"U937 monocytoid cells [1]; drug 100 uM, no dCF",2.5%
same,% FITC Shift,"U937 monocytoid cells [1]; drug 250 uM, no dCF",0.7%
same,% PI Shift,"U937 monocytoid cells [1]; drug 250 uM, no dCF",3.4%
same,% FITC Shift,"U937 monocytoid cells [1]; drug 1000 uM, no dCF",2.9%
same,% PI Shift,"U937 monocytoid cells [1]; drug 1000 uM, no dCF",9.5%
same,effect on apoptosis or cell cycle,U937 monocytoid cells [1]; up to 250 uM,little or no effect
"Nc1ncnc2c1ncn2[C@@H]1O[C@H](CO)[C@@H](O)[C@H]1O [Adenosine, 9-β-D-Ribofuranosyl-9H-purin-6-amine]",effect on apoptosis or cell cycle,U937 monocytoid cells [1]; at 1000 uM,slight hint of an effect
same,% FITC Shift,"U937 monocytoid cells [1]; drug 50 uM, no dCF",0.7%
same,% PI Shift,"U937 monocytoid cells [1]; drug 50 uM, no dCF",1.7%
same,% FITC Shift,"U937 monocytoid cells [1]; drug 75 uM, no dCF",0.6%
same,% PI Shift,"U937 monocytoid cells [1]; drug 75 uM, no dCF",2.1%
same,% FITC Shift,"U937 monocytoid cells [1]; drug 100 uM, no dCF",0.6%
same,% PI Shift,"U937 monocytoid cells [1]; drug 100 uM, no dCF",2.0%
same,% FITC Shift,"U937 monocytoid cells [1]; drug 250 uM, no dCF",0.6%
same,% PI Shift,"U937 monocytoid cells [1]; drug 250 uM, no dCF",1.9%
same,% FITC Shift,"U937 monocytoid cells [1]; drug 1000 uM, no dCF",2.9%
same,% PI Shift,"U937 monocytoid cells [1]; drug 1000 uM, no dCF",7.9%
same,effect on apoptosis or cell cycle,U937 monocytoid cells [1]; up to 250 uM,little or no effect
CC[C@@]1(O)C(=O)OCc2c1cc1n(c2=O)Cc2cc3ccccc3nc2-1 [Camptothecin],% FITC Shift,U937 monocytoid cells [2],93.4%
same,% FITC Shift,Jurkat T cells,80.2%
same,% FITC Shift,U937 monocytoid cells [3],79.5%
same,% PI Shift,U937 monocytoid cells [3],43.4%
same,Cytokine Secretion IL-6 pg/ml Mean of 3 Replicates,U-937 cells [4]; [13],0 pg/mL
same,Cytokine Secretion IL-6 pg/ml Mean of 3 Replicates,U-937 cells [4]; [14],0 pg/mL
same,% FITC Shift,U937 monocytoid cells [1]; [15],72.8%
same,% PI Shift,U937 monocytoid cells [1]; [15],32.2%
same,% FITC Shift,U937 monocytoid cells [5],84.3%
same,Cytokine Secretion IL-2 pg/ml Mean of 3 Replicates,Jurkat cells [6]; [13],0 pg/mL
same,Cytokine Secretion IL-2 pg/ml Mean of 3 Replicates,Jurkat cells [6]; [14],0 pg/mL
same,% PI Shift,U937 monocytoid cells [7],29.2%
"Nc1nc(Cl)nc2c1ncn2[C@H]1C[C@H](O)[C@@H](COP(=O)(O)OP(=O)(O)OP(=O)(O)O)O1 [CdATP, 2-chloro-2′-deoxyadenosine-5′-triphosphate]",IC50,[8],0.06 µM
Nc1nc(Cl)nc2c1ncn2[C@@H]1O[C@H](CO)[C@@H](O)[C@@H]1F [Clofarabine],Km,dCK,5 µM
Nc1nc(F)nc2c1ncn2C1OC(COP(=O)(O)OP(=O)(O)OP(=O)(O)O)C(O)C1O (centres unmarked) [F-Ara-ATP],IC50,[8],~0.6 µM
"Nc1nc(F)nc2c1ncn2[C@H]1C[C@H](O)[C@@H](CO)O1 [FdA, 2-fluoro-2′-deoxyadenosine]",Cytokine Secretion IL-6 pg/ml Mean of 3 Replicates,U-937 cells [4]; [16],7 pg/mL
same,effect on suppressing the production of IL-6,U-937 cells [4]; drug 1 μM,little effect
same,Cytokine Secretion IL-6 pg/ml Mean of 3 Replicates,U-937 cells [4]; [17],7 pg/mL and 8 pg/mL
same,Caspase-3 Induction % FITC Shift - Mean of 3 Replicates,U-937 cells [9]; 23 hr,67%
same,Caspase-3 Induction % FITC Shift - Mean of 3 Replicates,U-937 cells [9]; 46 hr,51%
same,Caspase-3 Induction % FITC Shift - Mean of 3 Replicates,Jurkat cells [10]; 23 hr,75%
same,Caspase-3 Induction % FITC Shift - Mean of 3 Replicates,Jurkat cells [10]; 46 hr,95%
same,Cytokine Secretion IL-2 pg/ml Mean of 3 Replicates,"Jurkat cells [6]; 23 hr, drug 1 μM, PHA-activated cells",41 pg/mL
same,Cytokine Secretion IL-2 pg/ml Mean of 3 Replicates,"Jurkat cells [6]; 46 hr, drug 1 μM, PHA-activated cells",72 pg/mL
same,IL-2 concentration,"Jurkat cells [6]; Jurkat cells activated by PHA, 46 hours, drug 1 μM",72 pg/mL
Nc1ccn([C@@H]2O[C@H](CO)[C@@H](O)C2(F)F)c(=O)n1 [Gemcitabine],half-life,[11],10 to 20 min
COc1nc(N)nc2c1ncn2[C@@H]1O[C@H](CO)[C@@H](O)[C@@H]1O [Nelarabine],Km to ADA relative to that of adenosine,ADA,less than 1%
"Nc1ccn([C@@H]2O[C@H](CO)[C@@H](O)[C@@H]2O)c(=O)n1 [ara-C, Cytosine 1β-D-Arabinofuranoside]",Cytokine Secretion IL-6 pg/ml Mean of 3 Replicates,U-937 cells [4]; [16],7 pg/mL
same,effect on suppressing the production of IL-6,U-937 cells [4]; drug 1 μM,little effect
same,Cytokine Secretion IL-6 pg/ml Mean of 3 Replicates,U-937 cells [4]; [17],7 pg/mL
same,times safer than the oncology dose,[12],9643
same,systemic exposure per day,[12]; 10% BSA (4 grams),2.8 mg
same,systemic exposure per day,[12]; 30% BSA (12 grams),8.4 mg
same,systemic exposure per day,[12]; 100% BSA (40 grams),28 mg
Nc1ccn(C2OC(COP(=O)(O)OP(=O)(O)O)C(O)C2(F)F)c(=O)n1 (centres unmarked) [gemcitabine diphosphate],IC50,[8],0.2 µM
